Assay results taken from US20250154169A1, “COMPOUNDS AND METHODS FOR MODULATING SPLICING” (REMIX THERAPEUTICS INC., priority 2021, published 2025).
Where a name gives a salt, the structure may show the parent alone. Read-outs that look alike come from different tables or passages of the source.

Legend:
Assay type in all cases: cell-based, human
HTT mRNA [1] = test: Splicing RT-qPCR assay, HTT canonical (CJ) and alternative (AJ) junction mRNA; conditions: Homo sapiens, A673 or K562 cells, 24 hours compound treatment; for IC50: 24 h, read-out: HTT CJ (IC50, decrease in canonical junction mRNA); for AC50: read-out: HTT AJ (AC50, increase in alternative junction mRNA)
Method in brief: (§1)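 Compound-induced exon inclusion is tracked as an increase in AJ transcript alongside the CJ transcript. Cells (A673 normalized to PPIA; K562 to GAPDH or GUSB) are dosed 24 h with a serial dilution topping at 10 uM, ≤0.25% DMSO, then lysed and analysed by RT-qPCR in at least duplicate.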

Target C mRNA = test: Splicing RT-qPCR gene panel, Target C canonical junction (CJ) mRNA; conditions: Homo sapiens, Tables 4A/4B, read-out: Target C (IC50, decrease in CJ mRNA, gene panel)
Method in brief: (§2)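 Cells (A673 in DMEM/10% FBS, K562 in IMDM/10% FBS) got compound for 24 h, top dose 10 uM, 11 points, 3-fold steps, DMSO ≤0.25%. Lysates went to RT-qPCR for the canonical exon-exon junction; ΔΔCt against housekeeper and DMSO gave RQ, then percentage response.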

MYB mRNA = test: Splicing RT-qPCR assay, MYB canonical (CJ) and alternative (AJ) junction mRNA; conditions: Homo sapiens; for AC50: read-out: MYB AJ (AC50, increase in alternative junction mRNA)
Method in brief: as §1

HTT mRNA [2] = test: Splicing RT-qPCR gene panel, HTT canonical junction (CJ) mRNA; conditions: Homo sapiens, Tables 4A/4B, read-out: HTT (IC50, decrease in CJ mRNA, gene panel)
Method in brief: as §2

SMN2 mRNA = test: Splicing RT-qPCR gene panel, SMN2 canonical junction (CJ) mRNA; conditions: Homo sapiens, Tables 4A/4B, read-out: SMN2 (IC50, decrease in CJ mRNA, gene panel)
Method in brief: as §2

[3] = 24 h, A673 or K562 cells, 24 hours compound treatment, RT-qPCR
[4] = 24 h, A673 or K562 cells, 24 hours compound treatment, RT-qPCR, read-out: MYB CJ (IC50, decrease in canonical junction mRNA)
[5] = Tables 4A/4B, canonical junction qPCR panel, read-out: MYB (IC50, decrease in CJ mRNA, gene panel)

Structure (SMILES) | IC50 (HTT mRNA [1]) [nM] | AC50 (HTT mRNA [1]) [nM] | IC50 (Target C mRNA) [nM] | AC50 (MYB mRNA; [3]) [nM] | IC50 (MYB mRNA; [4]) [nM] | IC50 (MYB mRNA; [5]) [nM] | IC50 (HTT mRNA [2]) [nM] | IC50 (SMN2 mRNA) [nM]
Cc1cn2cc(NC(=O)c3ccc(N4CCNCC4)c4cn(CCF)nc34)cc(F)c2n1 [Compound 305, N-{8-fluoro-2-methylimidazo[1,2-a]pyridin-6-yl}-2-(2-fluoroethyl)-4-(piperazin-1-yl)indazole-7-carboxamide] | 1000 to 10000 | 1000 to 10000 | > 10000 | 100 to 1000 | 100 to 1000 | 100 to 1000 | 1000 to 10000 | < 100
COCCn1cc2c(N3C[C@@H](C)N[C@@H](C)C3)ccc(C(=O)Nc3cc(F)c4nc(C)cn4c3)c2n1 [Compound 306, 4-[(3R,5S)-3,5-dimethylpiperazin-1-yl]-N-{8-fluoro-2-methylimidazo[1,2-a]pyridin-6-yl}-2-(2-methoxyethyl) indazole-7-carboxamide] | 1000 to 10000 | 1000 to 10000 | > 10000 | < 100 | 100 to 1000 | 100 to 1000 | 1000 to 10000 | < 100
CCNC1CCN(c2ccc(C(=O)Nc3cc(F)c4nc(C)cn4c3)c3nn(CCOC)cc23)CC1 [Compound 307, 4-[4-(ethylamino)piperidin-1-yl]-N-{8-fluoro-2-methylimidazo[1,2-a]pyridin-6-yl}-2-(2-methoxyethyl) indazole-7-carboxamide] | 1000 to 10000 | 1000 to 10000 | > 10000 | 100 to 1000 | 100 to 1000 | 100 to 1000 | 1000 to 10000 | < 100
Cc1cn2cc(NC(=O)c3ccc(N4CCNCC4)c4cn(CC5(C)COC5)nc34)cc(F)c2n1 [Compound 308, N-{8-fluoro-2-methylimidazo[1,2-a]pyridin-6-yl}-2-[(3-methyloxetan-3-yl)methyl]-4-(piperazin-1-yl)indazole-7-carboxamide] | > 10000 | > 10000 | > 10000 | > 10000 | > 10000 | > 10000 | > 10000 | > 10000
Cc1cn2cc(NC(=O)c3ccc(N4CCNCC4)c4cn(CC(=O)N(C)C)nc34)cc(F)c2n1 [Compound 309, 2-[(dimethylcarbamoyl)methyl]-N-{8-fluoro-2-methylimidazo[1,2-a]pyridin-6-yl}-4-(piperazin-1-yl)indazole-7-carboxamide] | > 10000 | > 10000 | > 10000 | > 10000 | 1000 to 10000 | 1000 to 10000 | > 10000 | 1000 to 10000
CCNC1CCN(c2ccc(C(=O)Nc3cc(F)c4nc(C)cn4c3)c3nn(CCOC)cc23)C1 (stereo not drawn) [Compound 310, 4-(3-(ethylamino)pyrrolidin-1-yl)-N-(8-fluoro-2-methylimidazo[1,2-a]pyridin-6-yl)-2-(2-methoxyethyl)-2H-indazole-7-carboxamide] | 1000 to 10000 | 1000 to 10000 | > 10000 | < 100 | < 100 | < 100 | 1000 to 10000 | < 100
COc1cc(C(=O)Nc2cc(F)c3nc(C)cn3c2)c2nn(C)cc2c1N1CCNCC1 [Compound 311, N-{8-fluoro-2-methylimidazo[1,2-a]pyridin-6-yl}-5-methoxy-2-methyl-4-(piperazin-1-yl)indazole-7-carboxamide] | > 10000 | > 10000 | > 10000 | 1000 to 10000 | 100 to 1000 | 100 to 1000 | > 10000 | < 100
CCCCn1cc2c(N3CCNCC3)ccc(C(=O)Nc3cc(F)c4nc(C)cn4c3)c2n1 [Compound 312, 2-butyl-N-{8-fluoro-2-methylimidazo[1,2-a]pyridin-6-yl}-4-(piperazin-1-yl)indazole-7-carboxamide] | 1000 to 10000 | 1000 to 10000 | 1000 to 10000 | < 100 | 100 to 1000 | 100 to 1000 | 1000 to 10000 | < 100
Cc1cn2cc(NC(=O)c3ccc(N4CCNCC4)c4cn(Cc5ccncc5)nc34)cc(F)c2n1 [Compound 313, N-{8-fluoro-2-methylimidazo[1,2-a]pyridin-6-yl}-4-(piperazin-1-yl)-2-(pyridin-4-ylmethyl)indazole-7-carboxamide] | > 10000 | > 10000 | 1000 to 10000 | 1000 to 10000 | 1000 to 10000 | 1000 to 10000 | > 10000 | 100 to 1000
Cc1cn2cc(NC(=O)c3ccc(N4CCNCC4)c4cn(C)nc34)cc(C#N)c2n1 [Compound 314, N-{8-cyano-2-methylimidazo[1,2-a]pyridin-6-yl}-2-methyl-4-(piperazin-1-yl) indazole-7-carboxamide hydrochloride] | 1000 to 10000 | 1000 to 10000 | > 10000 | < 100 | < 100 | < 100 | 1000 to 10000 | < 100
COc1c(NC(=O)c2ccc(N3CCNCC3)c3cn(C)nc23)cc2cn(C)nc2c1F [Compound 315, N-(7-fluoro-6-methoxy-2-methylindazol-5-yl)-2-methyl-4-(piperazin-1-yl) indazole-7-carboxamide hydrochloride] | 100 to 1000 | 100 to 1000 | 100 to 1000 | < 100 | < 100 | < 100 | 100 to 1000 | < 100
Cc1cn2cc(NC(=O)c3ccc(N4CCNCC4)c4cn(CC(F)(F)F)nc34)cc(F)c2n1 [Compound 316, N-{8-fluoro-2-methylimidazo[1,2-a]pyridin-6-yl}-4-(piperazin-1-yl)-2-(2,2,2-trifluoroethyl)indazole-7-carboxamide] | > 10000 | > 10000 | > 10000 | 100 to 1000 | 1000 to 10000 | 1000 to 10000 | > 10000 | 100 to 1000
Cc1cn2cc(NC(=O)c3ccc(N4CCNCC4)c4cn(Cc5cncnc5)nc34)cc(F)c2n1 [Compound 318, N-{8-fluoro-2-methylimidazo[1,2-a]pyridin-6-yl}-4-(piperazin-1-yl)-2-(pyrimidin-5-ylmethyl)indazole-7-carboxamide] | > 10000 | > 10000 | > 10000 | 100 to 1000 | 100 to 1000 | 100 to 1000 | > 10000 | < 100
Cn1cc2cc(NC(=O)c3ccc(N4CCNCC4)c4cn(C)nc34)cc(F)c2n1 [Compound 319, N-(7-fluoro-2-methylindazol-5-yl)-2-methyl-4-(piperazin-1-yl) indazole-7-carboxamide hydrochloride] | 1000 to 10000 | 1000 to 10000 | 1000 to 10000 | < 100 | < 100 | < 100 | 1000 to 10000 | < 100
Cc1cc(NC(=O)c2ccc(N3CCNCC3)c3cn(C)nc23)cc2cn(C)nc12 [Compound 320, N-(2,7-dimethylindazol-5-yl)-2-methyl-4-(piperazin-1-yl) indazole-7-carboxamide; trifluoroacetic acid] | 1000 to 10000 | 1000 to 10000 | > 10000 | 100 to 1000 | 100 to 1000 | 100 to 1000 | 1000 to 10000 | < 100
